{"source": "patent US20240000751A1", "about": "“STABLE ORAL FORMULATION CONTAINING 1-(3-CYANO-1-ISOPROPYL-INDOL-5-YL)PYRAZOLE-4-CARBOXYLIC ACID” (LG CHEM, LTD., priority 2020, published 2024)", "experiment": "Stability of API and 1:1 API/excipient mixtures stored under accelerated conditions, residual assay of API by HPLC", "format": "physicochemical", "conditions": "mixture", "description": "As disclosed in Table 1 below, after preparing a mixture by mixing API, 1-(3-cyano-1-isopropyl-indol-5-yl)pyrazol-4-carboxylic acid, with various types of excipients such as microcrystalline cellulose, the residual assay of API at the initial stage and after 1 month, 2 months, and 3 months storage, respectively, under accelerated conditions (40° C., 75% RH; relative humidity) were measured through the analysis method and process described below.\n• HPLC analysis conditions are as follows: • Column: Inertsil ODS-2 (4.6×150 mm, 5 μm, GL Science) • Detector: 254 nm, UV • Flow Rate: […] • Injection Volume: […] • Column Temperature: 40° C. • Eluent • A: Acetonitril/Purified water/TFA(Trifluoroacetic acid)=40/60/0.1(v/v/v) • B: Acetonitril/Purified water/TFA=80/20/0.1(v/v/v)"}
{"molecule": "CC(C)n1cc(C#N)c2cc(-n3cc(C(=O)O)cn3)ccc21", "note": "[Comparative Example 1, 1-(3-cyano-1-isopropyl-indol-5-yl)pyrazol-4-carboxylic acid]", "values": [{"measurement": "residual assay of API, 3 Months", "setting": "after 3 months storage under accelerated conditions (40° C., 75% RH)", "result": 98.7, "unit": "%"}, {"measurement": "residual assay of API, Initial", "setting": "initial stage, accelerated conditions (40° C., 75% RH)", "result": 98.7, "unit": "%"}]}
